Our source for the IC50 values is patent publication US20060058324A1, “4-Amino-5-phenyl-7-cyclohexyl-pyrrolo 2,3-d pyrimidine derivatives” (priority 2002, published 2006).

Molecules are shown by their SMILES.

T1 sequence (P08069 31-1367): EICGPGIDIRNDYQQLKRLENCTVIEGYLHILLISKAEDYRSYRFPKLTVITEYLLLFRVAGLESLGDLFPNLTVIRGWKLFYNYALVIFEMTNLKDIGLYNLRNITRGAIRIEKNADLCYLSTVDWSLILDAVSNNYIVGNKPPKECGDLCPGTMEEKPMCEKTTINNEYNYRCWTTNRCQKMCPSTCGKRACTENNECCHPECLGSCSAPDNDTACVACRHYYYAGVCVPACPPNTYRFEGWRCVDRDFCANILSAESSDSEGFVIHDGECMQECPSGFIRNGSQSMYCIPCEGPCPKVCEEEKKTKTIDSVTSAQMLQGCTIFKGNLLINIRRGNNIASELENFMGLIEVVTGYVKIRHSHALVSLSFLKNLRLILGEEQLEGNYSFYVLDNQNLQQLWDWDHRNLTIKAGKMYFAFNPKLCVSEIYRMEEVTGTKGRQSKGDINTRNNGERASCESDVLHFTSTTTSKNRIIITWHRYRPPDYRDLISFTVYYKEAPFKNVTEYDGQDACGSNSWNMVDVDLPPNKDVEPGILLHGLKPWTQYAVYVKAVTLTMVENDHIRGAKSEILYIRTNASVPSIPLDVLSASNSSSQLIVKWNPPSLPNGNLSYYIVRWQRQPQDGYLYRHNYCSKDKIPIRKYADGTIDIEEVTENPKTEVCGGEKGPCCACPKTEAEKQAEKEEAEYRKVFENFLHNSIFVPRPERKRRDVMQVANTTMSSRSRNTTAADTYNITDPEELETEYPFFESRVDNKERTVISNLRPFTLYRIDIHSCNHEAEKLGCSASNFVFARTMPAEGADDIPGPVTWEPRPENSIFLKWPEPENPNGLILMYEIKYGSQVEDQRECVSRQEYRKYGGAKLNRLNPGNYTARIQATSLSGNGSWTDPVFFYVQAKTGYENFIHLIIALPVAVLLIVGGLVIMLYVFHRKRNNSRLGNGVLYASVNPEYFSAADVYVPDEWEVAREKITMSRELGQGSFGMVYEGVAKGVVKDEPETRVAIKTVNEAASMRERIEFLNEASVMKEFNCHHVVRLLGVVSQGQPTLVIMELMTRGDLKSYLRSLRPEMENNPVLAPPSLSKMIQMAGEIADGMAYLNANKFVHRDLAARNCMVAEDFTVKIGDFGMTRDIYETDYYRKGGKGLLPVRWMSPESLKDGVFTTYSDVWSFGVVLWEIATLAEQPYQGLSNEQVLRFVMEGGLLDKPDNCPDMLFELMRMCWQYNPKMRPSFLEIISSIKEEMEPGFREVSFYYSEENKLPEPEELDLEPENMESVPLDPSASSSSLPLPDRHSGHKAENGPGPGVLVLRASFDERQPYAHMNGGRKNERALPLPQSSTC

The assay concerns the target T1, human IGF-IR (Homo sapiens, UniProt P08069).
T1 construct: complete human IGF-IR cDNA: GenBank Acc; No. NM_000875; expressed in transfected cells; host or cells: NIH-3T3 mouse fibroblasts (NWT-21 cell line), prepared as in Kato et al., J. Biol. Chem. 268, 2655-61, 1993
As to the kind of experiment: cellular "Capture ELISA" test for activity against IGF-I induced IGF-IR autophosphorylation. The note with it: IGF-I (10 ng/ml) induced IGF-IR autophosphorylation in NIH-3T3 mouse fibroblasts transfected with human IGF-IR (NWT-21 cell line); 90 min compound incubation. It is filed as cell-based. Here is the method:
In this assay the activity of the compounds of the invention against Insulin-like growth factor I (IGF-I) induced autophosphorylation of the IGF-IR is determined. The assay is conducted as follows:
The cells which overexpress human IGF-IR are cultured in Dulbecco's minimal essential (DMEM) medium, containing 10% Fetal Calf Serum (FCS). […] On day 3 the medium is discarded and the cells are incubated for 24 h in minimal medium (DMEM, containing 0.5% FCS).
The plates are washed twice with 0.05% (v/v) Tween-20 in Phosphate-Buffered Saline (PBS) and once with nanopure H2O. […] After blocking, the plates are washed once with nanopure H2O.
After incubating the extracts and the secondary antibody for 2 h at 4° C., the extracts are discarded, the plates are washed twice with 0.05% (v/v) Tween-20 in PBS and once with nanopure water.
90 μl/well AP substrate (CDP-Star; obtained from Tropix; Cat. No.: MS100RY) are then added and the plates are incubated for 45 min at RT in the dark, followed by measuring AP activity in a Packard Top Count Microplate Scintillation Counter. The IC50 values for the compounds of formula I are calculated via linear regression analysis using the GraphPad In-stat program (GraphPad Software, USA).
Test for activity against IGF-I induced IGF-IR autophosphorylation using the cellular “Capture ELISA” test
The cellular “Capture ELISA” test is carried out as described above.
For orientation: ELISA stands for enzyme-linked immunosorbent assay.
`CCN(CC)[C@H]1CC[C@H](n2c(C)c(-c3cccc(OCc4ccccc4)c3)c3c(N)ncnc32)CC1` [Example 47, trans-5-(3-Benzyloxy-phenyl)-7-(4-diethylamino-cyclohexyl)-6-methyl-7H-Pyrrolo[2,3-d]pyrimidin-4-ylamine] had an IC50 of 400 nM.

In turn, `Nc1ncnc2c1c(-c1cccc(OCc3ccccc3)c1)cn2[C@H]1CC[C@@H](N2CCC2)CC1` [Example 10, cis-7-(4-Azetidin-1-yl-cyclohexyl)-5-(3-benzyloxy-phenyl)-7H-pyrrolo[2,3-d]pyrimidin-4-ylamine] gave an IC50 of 120 nM. Turning to `Nc1ncnc2c1c(-c1cccc(OCc3ccccc3)c1)cn2[C@H]1CC[C@H](N2CCC2)CC1` [Example 11, trans-7-(4-Azetidin-1-yl-cyclohexyl)-5-(3-benzyloxy-phenyl)-7H-pyrrolo[2,3-d]pyrimidin-4-ylamine], the IC50 is 350 nM.

Broadly, the IC50 is the concentration needed to halve the response being measured. Read a low IC50 as greater potency.
